This is an account of results in PubChem BioAssay (NCI).

Where “and” joins values, the source holds several entries; their conditions need not be identical. Equal values may be shown once.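 Test compounds were applied to cells in 96-well plates for 48 hours at 5 doses. GI50: concentration for 50% inhibition of growth. At the TGI there is no net growth.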

Test systems include CCRF-CEM leukemia; HCC-2998 colon; HOP-62 NSCLC; MCF7 breast; MOLT-4 leukemia; OVCAR-3 ovarian; OVCAR-5 ovarian; RPMI-8226 leukemia; SF-295 CNS; SR leukemia.
Experiment in all cases: growth of human tumour cells (NCI), 48 h

On to `COC[C@@H](N=C1NC(=O)/C(=C/c2ccc3ncccc3c2)S1)c1ccccc1`, for which the GI50 in the assay on CCRF-CEM leukemia is 6.8 µM; in the assay with HCC-2998 colon, 12.3 µM; in the assay on HOP-62 NSCLC, 11.7 µM; with MCF7 breast it was 7.24 µM; in the assay on MOLT-4 leukemia it was 8.88 µM; in the assay on OVCAR-3 ovarian it was 9.38 µM. Also, the GI50 in the assay with OVCAR-5 ovarian was above 25 µM; with RPMI-8226 leukemia it was 6.13 µM; in the assay on SF-295 CNS, 8.71 µM; in the assay on SR leukemia it was 3.64 µM. For the same compound, the TGI is above 22 µM with CCRF-CEM leukemia; above 25 µM in the assay with HCC-2998 colon; above 25 µM in the assay on HOP-62 NSCLC; above 25 µM in the assay on MCF7 breast; above 25 µM in the assay on MOLT-4 leukemia; above 25 µM in the assay on OVCAR-3 ovarian. Further, the TGI in the assay with OVCAR-5 ovarian was above 25 µM; in the assay with RPMI-8226 leukemia, 20.7 µM; with SF-295 CNS, above 25 µM; in the assay with SR leukemia, 15.6 µM.

As for `CN(c1ncccc1CNc1nc(Nc2ccc3c(c2)CC(=O)N3)ncc1C(F)(F)F)S(C)(=O)=O`, the GI50 was 3 µM and 2.46 µM in the assay on CCRF-CEM leukemia; 1.41 µM and 1.8 µM in the assay on HCC-2998 colon; 2.58 µM and 2.59 µM with HOP-62 NSCLC; 0.948 µM and 1.1 µM in the assay on MCF7 breast; 2.9 µM and 2.67 µM with MOLT-4 leukemia; 2.42 µM and 2.81 µM in the assay with OVCAR-3 ovarian. Moreover, the GI50 in the assay with OVCAR-5 ovarian is 2.22 µM and 2.7 µM; in the assay on RPMI-8226 leukemia, 2.75 µM and 2.39 µM; in the assay on SF-295 CNS, 2.2 µM and 2.55 µM; in the assay with SR leukemia it was 0.606 µM and 1.54 µM. The TGI in the assay with HCC-2998 colon is 7.28 µM and 9.71 µM; with HOP-62 NSCLC, above 30.1 µM; with MCF7 breast, above 27 µM; with MOLT-4 leukemia, 7.47 µM and 7.55 µM; in the assay with OVCAR-3 ovarian, above 26.9 µM; in the assay with OVCAR-5 ovarian it was 60.3 µM and > 10 µM. The TGI was 10.2 µM and 6.94 µM in the assay with RPMI-8226 leukemia; above 100 µM with SF-295 CNS; 4.91 µM and 5.26 µM in the assay on SR leukemia.

As for `CCN(CC)c1ccc(/C=N/NC(=O)CSc2nc3ccccc3c(=O)n2CCc2ccc(S(N)(=O)=O)cc2)c(O)c1`, the GI50 in the assay with CCRF-CEM leukemia was 0.326 µM; with HCC-2998 colon, 2.49 µM; with HOP-62 NSCLC it was 1.86 µM; with MCF7 breast it was 1.64 µM; with MOLT-4 leukemia it was 0.653 µM; in the assay with OVCAR-3 ovarian it was 0.296 µM. The GI50 is 4.4 µM in the assay on OVCAR-5 ovarian, 0.417 µM in the assay on RPMI-8226 leukemia, 4.01 µM in the assay with SF-295 CNS and 0.445 µM with SR leukemia. In addition, the TGI is 4.35 µM with CCRF-CEM leukemia; above 100 µM with HCC-2998 colon; above 100 µM in the assay with HOP-62 NSCLC; above 100 µM with MCF7 breast; above 100 µM in the assay with MOLT-4 leukemia; above 100 µM in the assay with OVCAR-3 ovarian. For the same compound, the TGI with OVCAR-5 ovarian is above 100 µM; with RPMI-8226 leukemia, 2.44 µM; with SF-295 CNS it was above 100 µM; in the assay with SR leukemia it was above 100 µM.

Regarding `COc1cc(C2Cc3ncccc3-c3[nH]c(=O)c4cccnc4c32)cc(OC)c1OC` (centres undefined), the GI50 with CCRF-CEM leukemia is 0.467 µM; in the assay with HCC-2998 colon, 2.24 µM; with HOP-62 NSCLC it was 0.396 µM; in the assay with MCF7 breast it was 0.277 µM; in the assay with MOLT-4 leukemia, 0.535 µM; with OVCAR-3 ovarian, 0.323 µM. Also, the GI50 in the assay with OVCAR-5 ovarian is 4.82 µM; with RPMI-8226 leukemia, 0.68 µM; in the assay with SF-295 CNS, 0.274 µM; in the assay with SR leukemia, 0.281 µM. Also, the TGI in the assay on CCRF-CEM leukemia is above 100 µM; in the assay with HCC-2998 colon, above 100 µM; with HOP-62 NSCLC, above 87.4 µM; in the assay with MCF7 breast, above 100 µM; with MOLT-4 leukemia, above 100 µM; with OVCAR-3 ovarian, 5.49 µM. Further, the TGI with OVCAR-5 ovarian, in the assay on RPMI-8226 leukemia, in the assay on SF-295 CNS and in the assay on SR leukemia was above 100 µM each time.

For `O=c1c2c(=NCCN3CCCC3)cc3c(=O)n(CCCN4CCOCC4)c(=O)c4c(-c5ccc(CN6CCCC6)cc5)cc(c(O)n1CCCN1CCOCC1)c2c4-3`, the GI50 in the assay on CCRF-CEM leukemia is 0.0673 µM; with HCC-2998 colon it was 0.0556 µM; with HOP-62 NSCLC, 0.0255 µM; in the assay with MCF7 breast, 0.0284 µM; with MOLT-4 leukemia, below 0.0206 µM; in the assay on OVCAR-3 ovarian, 0.0244 µM. For the same compound, the GI50 in the assay with OVCAR-5 ovarian is 0.0847 µM; in the assay on RPMI-8226 leukemia, 0.0368 µM; in the assay on SF-295 CNS, 0.164 µM; in the assay with SR leukemia it was below 0.0108 µM. In addition, the TGI in the assay with CCRF-CEM leukemia stood at 1.05 µM; with HCC-2998 colon, 0.284 µM; in the assay on HOP-62 NSCLC, 0.221 µM; in the assay on MCF7 breast, 0.446 µM; in the assay on MOLT-4 leukemia, 5.37 µM; in the assay on OVCAR-3 ovarian, 0.109 µM. Further, the TGI is 0.724 µM in the assay on OVCAR-5 ovarian, 0.409 µM in the assay with RPMI-8226 leukemia, 0.796 µM with SF-295 CNS and 11.1 µM in the assay on SR leukemia.

With `Cc1nc([P+](c2ccccc2)(c2ccccc2)c2ccccc2)c(Sc2sc(-c3ccccc3)nc2[P+](c2ccccc2)(c2ccccc2)c2ccccc2)o1`, the GI50 in the assay with CCRF-CEM leukemia is 0.959 µM; in the assay on HCC-2998 colon, 2 µM; in the assay on HOP-62 NSCLC it was 2.08 µM; with MCF7 breast it was 0.669 µM; with MOLT-4 leukemia it was 1.8 µM; with OVCAR-3 ovarian, 0.76 µM. For the same compound, the GI50 in the assay on OVCAR-5 ovarian was 2.29 µM; in the assay with RPMI-8226 leukemia, 0.27 µM; in the assay with SF-295 CNS it was 2.24 µM; in the assay with SR leukemia it was 0.372 µM. The TGI in the assay on CCRF-CEM leukemia came out at 9.4 µM; in the assay with HCC-2998 colon, 6.22 µM; in the assay on HOP-62 NSCLC, 13.2 µM; with MCF7 breast it was 4.81 µM; with MOLT-4 leukemia, 6.15 µM; in the assay with OVCAR-3 ovarian, 3.29 µM. Moreover, the TGI in the assay with OVCAR-5 ovarian is 8.53 µM; in the assay with RPMI-8226 leukemia it was 1.25 µM; in the assay on SF-295 CNS, 6.77 µM; with SR leukemia, 17.2 µM.

`O=C(Oc1cccc2cccnc12)c1cc2c(cc1Cl)SC(N(c1ccc(F)cc1)S(=O)(=O)c1ccc(Br)s1)=NS2(=O)=O`: the GI50 in the assay with CCRF-CEM leukemia is 30.5 µM; in the assay with HCC-2998 colon, 43.5 µM; in the assay on HOP-62 NSCLC it was 50.8 µM; in the assay on MCF7 breast, 21.3 µM; with MOLT-4 leukemia it was 28.7 µM; in the assay with OVCAR-3 ovarian it was 8.16 µM. Besides, the GI50 is 26.6 µM in the assay on OVCAR-5 ovarian, 28.6 µM in the assay with RPMI-8226 leukemia, 22.4 µM with SF-295 CNS and 46.2 µM in the assay on SR leukemia. Besides, the TGI with CCRF-CEM leukemia is above 100 µM; in the assay with HCC-2998 colon, above 100 µM; with HOP-62 NSCLC it was above 100 µM; in the assay with MCF7 breast, 44 µM; in the assay on MOLT-4 leukemia, above 100 µM; in the assay on OVCAR-3 ovarian, 66.4 µM. Moreover, the TGI in the assay on OVCAR-5 ovarian was 94.3 µM; with RPMI-8226 leukemia it was 96.3 µM; with SF-295 CNS, 69.7 µM; with SR leukemia, above 100 µM.
